From patent US8957093B2, “N-biphenylmethylindole modulators of PPARG” (The Scripps Research Institute, priority 2011, dated 2015)

These compounds were tested against GST-PPARG-LBD (Homo sapiens (Human), UniProt P37231) (assay: Lanthascreen PPARG competitive binding assay (Invitrogen, TR-FRET)). Details: Lanthascreen PPARG competitive binding; inc = incomplete curve; NA = not active.
Description: Lanthascreen PPARG Competitive Binding Assay (Invitrogen)
The assay was performed according to manufacturer protocol. A mixture of […], 5 nM Tb-GST-antibody, 5 nM Fluormone Pan-PPAR Green, and serial dilutions of the experimental compound, beginning at 10 μM downwards, was added to wells of black 384-well low-volume plates (Greiner) to a total volume of 18 μL. All dilutions were made in TR-FRET assay buffer C. DMSO at 2% final concentration was used as a no-ligand control. Experiment was performed in triplicate, and incubated for 2 hours in the dark prior to assay read in Perkin Elmer ViewLux ultra HTS microplate reader. FRET signal was measured by excitation at 340 nm and emission at 520 nm for fluorescein and 490 nm for terbium. Fold change over DMSO was calculated using GraphPad Prism Software (La Jolla, Calif.) by calculating 520 nm/490 nm ratio. Graphs were plotted as fold change of FRET signal for compound treatment over DMSO-only control.

Sequence of GST-PPARG-LBD (P37231 238-503): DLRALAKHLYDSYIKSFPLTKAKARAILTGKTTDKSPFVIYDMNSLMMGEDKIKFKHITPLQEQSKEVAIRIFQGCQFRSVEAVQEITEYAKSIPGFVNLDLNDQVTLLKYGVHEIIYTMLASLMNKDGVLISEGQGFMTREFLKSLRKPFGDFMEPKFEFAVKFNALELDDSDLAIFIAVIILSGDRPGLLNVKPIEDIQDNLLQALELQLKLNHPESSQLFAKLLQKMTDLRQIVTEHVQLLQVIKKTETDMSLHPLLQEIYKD

Compound	IC50 (nM) Lantha
Cc1c(C)n(Cc2ccc(-c3ccccc3C#N)cc2)c2ccc(C(=O)N[C@@H](C)c3cccc(Br)c3)cc12 [Example 284, (S)—N-(1-(3-bromophenyl)ethyl)-1-((2′-cyano-[1,1′-biphenyl]-4-yl)methyl)-2,3-dimethyl-1H-indole-5-carboxamide]	inc
COc1ccccc1[C@H](C)NC(=O)c1ccc2c(c1)c(C)c(C)n2Cc1ccc(-c2ccccc2C#N)cc1 [Example 292, (S)-1-((2′-cyano-[1,1′-biphenyl]-4-yl)methyl)-N-(1-(2-methoxyphenyl)ethyl)-2,3-dimethyl-1H-indole-5-carboxamide]	inc
Cc1c(C)n(Cc2ccc(-c3ccccc3C#N)cc2)c2ccc(C(=O)N[C@@H](C)c3cccc(Cl)c3)cc12 [Example 281, (S)—N-(1-(3-chlorophenyl)ethyl)-1-((2′-cyano-[1,1′-biphenyl]-4-yl)methyl)-2,3-dimethyl-1H-indole-5-carboxamide]	inc
Cc1c(C)n(Cc2ccc(-c3ccccc3C#N)cc2)c2ccc(C(=O)N[C@@H](C)c3ccc(F)cc3F)cc12 [Example 286, (S)-1-((2′-cyano-[1,1′-biphenyl]-4-yl)methyl)-N-(1-(2,4-difluorophenyl)ethyl)-2,3-dimethyl-1H-indole-5-carboxamide]	inc
Cc1c(C)n(Cc2ccc(-c3ccccc3C#N)cc2)c2ccc(C(=O)N[C@@H](C)c3ccc(Cl)cc3)cc12 [Example 283, (S)—N-(1-(4-chlorophenyl)ethyl)-1-((2′-cyano-[1,1′-biphenyl]-4-yl)methyl)-2,3-dimethyl-1H-indole-5-carboxamide]	inc
CCc1ccc([C@H](C)NC(=O)c2ccc3c(c2)c(C)c(C)n3Cc2ccc(-c3ccccc3C#N)cc2)cc1 [Example 289, (S)-1-((2′-cyano-[1,1′-biphenyl]-4-yl)methyl)-N-(1-(4-ethylphenyl)ethyl)-2,3-dimethyl-1H-indole-5-carboxamide]	inc
Cc1ccc([C@H](C)NC(=O)c2ccc3c(c2)c(C)c(C)n3Cc2ccc(-c3ccccc3C#N)cc2)cc1 [Example 288, (S)-1-((2′-cyano-[1,1′-biphenyl]-4-yl)methyl)-2,3-dimethyl-N-(1-(p-tolyl)ethyl)-1H-indole-5-carboxamide]	inc
Cc1c(C)n(Cc2ccc(-c3ccccc3C#N)cc2)c2ccc(C(=O)N[C@@H](C)c3cccc(C(F)(F)F)c3)cc12 [Example 282, (S)-1-((2′-cyano-[1,1′-biphenyl]-4-yl)methyl)-2,3-dimethyl-N-(1-(3-(trifluoromethyl)phenyl)ethyl)-1H-indole-5-carboxamide]	inc
Cc1c(C)n(Cc2ccc(-c3ccccc3C#N)cc2)c2ccc(C(=O)N[C@@H](C)c3ccccc3Cl)cc12 [Example 287, (S)—N-(1-(2-chlorophenyl)ethyl)-1-((2′-cyano-[1,1′-biphenyl]-4-yl)methyl)-2,3-dimethyl-1H-indole-5-carboxamide]	inc

Same assay, conditions: Lanthascreen PPARG competitive binding; inc = incomplete curve; NA = not active; read-out: IC50 (nM) Lantha

Compound	IC50 [nM]
Cc1c(C)n(Cc2ccc(-c3ccccc3C(=O)NCCO)cc2)c2ccc(C(=O)N[C@@H](C)c3cccc(C(C)C)c3)cc12 [Example 307, (S)-1-((2′-((2-Hydroxyethyl)carbamoyl)-[1,1′-biphenyl]-4-yl)methyl)-N-(1-(3-isopropylphenyl)ethyl)-2,3-dimethyl-1H-indole-5-carboxamide]	600
Cc1c(C)n(Cc2ccc(-c3ccccc3C(=O)O)cc2)c2ccc(C(=O)N[C@H](C)c3ccc(S(C)(=O)=O)cc3)cc12 [Example 276, (R)-4′-((2,3-dimethyl-5-(1-(4-(methylsulfonyl)phenyl)ethylcarbamoyl)-1H-indol-1-yl)methyl)biphenyl-2-carboxylic acid]	11
Cc1c(C)n(Cc2ccc(-c3ccccc3C#N)cc2)c2ccc(C(=O)N[C@@H](C)c3ccc(OC(C)C)cc3)cc12 [Example 278, (S)-1-((2′-cyano-[1,1′-biphenyl]-4-yl)methyl)-N-(1-(4-isopropoxyphenyl)ethyl)-2,3-dimethyl-1H-indole-5-carboxamide]	808

Same assay, conditions: Lanthascreen competitive binding; NA = not active; inc = incomplete curve

Compound	IC50 (nM) Lantha
Cc1c(C)n(Cc2ccc(-c3ccccc3C#N)cc2)c2ccc(C(=O)N[C@@H](C)c3ccc(C(C)C)cc3)cc12 [Example 186, (S)-1-((2′-cyano-[1,1′-biphenyl]-4-yl)methyl)-N-(1-(4-isopropylphenyl)ethyl)-2,3-dimethyl-1H-indole-5-carboxamide]	inc
Cc1c(C)n(Cc2ccc(-c3ccccc3C#N)cc2)c2ccc(C(=O)N[C@@H](C)c3ccc(C(C)(C)C)cc3)cc12 [Example 184, (S)—N-(1-(4-(tert-butyl)phenyl)ethyl)-1-((2′-cyano-[1,1′-biphenyl]-4-yl)methyl)-2,3-dimethyl-1H-indole-5-carboxamide]	^2inc^

Same assay, conditions: Lanthascreen competitive binding; NA = not active; inc = incomplete curve; read-out: IC50 (nM) Lantha

Compound	IC50 [nM]
C[C@H](NC(=O)c1ccc2c(ccn2Cc2ccc(-c3ccccc3C(=O)O)cc2)c1)c1ccc([N+](=O)[O-])cc1 [Example 61, (S)-4′-((5-((1-(4-Nitrophenyl)ethyl)carbamoyl)-1H-indol-1-yl)methyl)-[1,1′-biphenyl]-2-carboxylic acid]	646
C[C@H](NC(=O)c1ccc2c(ccn2Cc2ccc(-c3cccc(C(=O)O)c3)cc2)c1)c1ccc([N+](=O)[O-])cc1 [Example 60, (S)-4′-((5-((1-(4-Nitrophenyl)ethyl)carbamoyl)-1H-indol-1-yl)methyl)-[1,1′-biphenyl]-3-carboxylic acid]	> 1000
Cc1c(C)n(Cc2ccc(-c3ccccc3C(=O)O)cc2)c2ccc(C(=O)N[C@@H](C)c3ccccc3OC(F)(F)F)cc12 [Example 256, (S)-4′-((2,3-dimethyl-5-(1-(2-(trifluoromethoxy)phenyl)ethylcarbamoyl)-1H-indol-1-yl)methyl)biphenyl-2-carboxylic acid]	38
CSc1ccc(-c2ccc(Cn3ccc4cc(C(=O)N[C@@H](C)c5ccc([N+](=O)[O-])cc5)ccc43)cc2)cc1 [Example 51, (S)-1-((4′-(Methylthio)-[1,1′-biphenyl]-4-yl)methyl)-N-(1-(4-nitrophenyl)ethyl)-1H-indole-5-carboxamide]	> 1000
Cc1c(C)n(Cc2ccc(-c3ccccc3C(=O)O)cc2)c2ccc(C(=O)N[C@@H](C)c3ccc4ccccc4c3)cc12 [compound 26, (S)-4′-((2,3-Dimethyl-5-((1-(naphthalen-2-yl)ethyl)carbamoyl)-1H-indol-1-yl)methyl)-[1,1′-biphenyl]-2-carboxylic acid]	> 1000
COc1ccc(CNC(=O)c2ccc3c(c2)c(C)c(C)n3Cc2ccc(-c3ccccc3C(=O)O)cc2)cc1F [Example 111, 4′-((5-(3-fluoro-4-methoxybenzylcarbamoyl)-2,3-dimethyl-1H-indol-1-yl)methyl)biphenyl-2-carboxylic acid]	13
Cc1c(C)n(Cc2ccc(-c3ccccc3C(=O)O)cc2)c2ccc(C(=O)NCc3cccc(CN)c3)cc12 [Example 82, 4′-((5-(3-(aminomethyl)benzylcarbamoyl)-2,3-dimethyl-1H-indol-1-yl)methyl)biphenyl-2-carboxylic acid]	> 1000
CC[C@H](NC(=O)c1ccc2c(ccn2Cc2ccccc2-c2ccc(C(=O)O)cc2)c1)c1ccccc1 [Example 189, (S)-2′-((5-((1-phenylpropyl)carbamoyl)-1H-indol-1-yl)methyl)-[1,1′-biphenyl]-4-carboxylic acid]	100
Cc1cn(Cc2ccc(-c3ccccc3C(=O)O)cc2)c2ccc(C(=O)N[C@@H](C)c3ccc(Br)cc3)cc12 [Example 132, (S)-4′-((5-((1-(4-Bromophenyl)ethyl)carbamoyl)-3-methyl-1H-indol-1-yl)methyl)-[1,1′-biphenyl]-2-carboxylic acid]	24
COc1ccc(CNC(=O)c2ccc3c(c2)c(C)c(C)n3Cc2ccc(-c3ccccc3C(=O)O)cc2)cc1 [Example 104, 4′-((5-(4-methoxybenzylcarbamoyl)-2,3-dimethyl-1H-indol-1-yl)methyl)biphenyl-2-carboxylic acid]	7
COc1c(F)cccc1[C@H](C)NC(=O)c1ccc2c(c1)c(C)c(C)n2Cc1ccc(-c2ccccc2C(=O)O)cc1 [Example 177, (S)-4′-((5-((1-(3-fluoro-2-methoxyphenyl)ethyl)carbamoyl)-2,3-dimethyl-1H-indol-1-yl)methyl)-[1,1′-biphenyl]-2-carboxylic acid]	21
Cc1c(C)n(Cc2ccc(-c3ccccc3C(=O)O)cc2)c2ccc(C(=O)N[C@@H](C)c3ccc(N)cc3)cc12 [Example 99, (S)-4′-((5-(1-(4-aminophenyl)ethylcarbamoyl)-2,3-dimethyl-1H-indol-1-yl)methyl)biphenyl-2-carboxylic acid]	240
C[C@H](NC(=O)c1ccc2c(ccn2Cc2ccc(-c3ccccc3C(=O)OC(C)(C)C)cc2)c1)c1ccc([N+](=O)[O-])cc1 [Example 55, (S)-tert-Butyl 4′-((5-((1-(4-nitrophenyl)ethyl)carbamoyl)-1H-indol-1-yl)methyl)-[1,1′-biphenyl]-2-carboxylate]	> 1000
Cc1c(C)n(Cc2ccc(-c3ccccc3C(=O)O)cc2)c2ccc(C(=O)NCc3ccc(C(F)(F)F)cc3)cc12 [Example 101, 4′-((2,3-dimethyl-5-(4-(trifluoromethyl)benzylcarbamoyl)-1H-indol-1-yl)methyl)biphenyl-2-carboxylic acid]	208
